Data as given in patent US6207674A, “Dextromethorphan and oxidase inhibitor for weaning patients from narcotics and anti-depressants” (priority 1999, dated 2001).
Like-named read-outs stand apart in the source and are kept apart here.

Columns and labels:
[1] = system: cytochrome P450-2D6 enzyme; conditions: cited from earlier work
[2] = coadministration with DM; cited from earlier work
[3] = system: pain; conditions: DM combined with morphine; published reports; cited from earlier work
[4] = system: morphine and anti-depressant dependence; assay: Patient Number 1, initial 3-week trial of DM alone (neuropathic pain, weaning from morphine and anti-depressants); assay type: in vivo, human
Text: They took capsules with 30 milligrams of DM, twice each day.

[5] = read-out: Michaelis-Menton inhibition (Ki) value, P450-2D6, in vitro, Inaba et al 1985
[6] = DM 30 mg twice a day, oral, about three weeks, no quinidine

| Structure (SMILES) | Ki [1, 5] [µM] | other results |
| --- | --- | --- |
| COCCc1ccc(OCC(O)CNC(C)C)cc1 (racemic) [metaprolol] |  | Ki [1]: 18 µM |
| COc1ccc(Cc2nccc3cc(OC)c(OC)cc23)cc1OC [papaverine] | 25 |  |
| C=CCOc1ccccc1OCC(O)CNC(C)C (stereo not shown) [oxprenolol] | 15 |  |
| NC(=O)C1(N2CCCCC2)CCN(CCCC(=O)c2ccc(F)cc2)CC1 [pipamperone] |  | Ki [1]: 4 µM |
| C=C[C@H]1C[N@@]2CC[C@H]1C[C@H]2[C@H](O)c1ccnc2ccc(OC)cc12 [quinine] | 15 |  |
| C=C[C@H]1C[N@@]2CC[C@H]1C[C@@H]2[C@@H](O)c1ccnc2ccc(OC)cc12 [Quinidine, quinidine] | 0.06 | effect on DM concentration / level in blood [2]: increase the level of DM in the blood of most patients |
| CC(C)NCC(O)COc1cccc2ccccc12 (stereo not shown) [propranolol] | 15 |  |
| CC(CCc1ccccc1)NCC(O)c1ccc(O)c(C(N)=O)c1 (stereo not shown) [labetalol] | 7 |  |
| CC[C@H]1[C@@H]2C[C@H]3[C@@H]4N(C)c5ccccc5[C@]45C[C@@H]([C@H]2[C@H]5O)N3[C@@H]1O [ajmaline] | 2 |  |
| O=c1[nH]c2ccccc2n1CCCN1CCC(n2c(=O)[nH]c3cc(Cl)ccc32)CC1 [domperidone] | 8 |  |
| CNCCC=C1c2ccccc2CCc2ccccc21 [nortriptyline] | 15 |  |
| CN1[C@@H](CC(=O)c2ccccc2)CCC[C@H]1C[C@H](O)c1ccccc1 [lobeline] | 2 |  |
| O=C(CCCN1CCC(O)(c2ccc(Cl)cc2)CC1)c1ccc(F)cc1 [haloperidol] |  | Ki [1]: 1 µM |
| Cc1cccc(C)c1OCC(C)N (stereo not shown) [mexiletine] | 30 |  |
| CNCCC(Oc1ccc(C(F)(F)F)cc1)c1ccccc1 (stereo not shown) [Fluoxetine, fluoxetine] |  | effect on DM concentration / level in blood [2]: increase the concentrations of DM |
| COc1ccc2c(c1)[C@]13CCCC[C@@H]1[C@H](C2)N(C)CC3 [DM, dextromethorphan] |  | potentiation of pain-relieving activity of morphine [3]: potentiated the pain-relieving activity of morphine; symptoms reported at follow-up exam [4, 6]: symptoms were unchanged; use and dosages of morphine and WELLBUTRIN [4, 6]: remained the same; nighttime dosage of ELAVIL at follow-up ([4]; reduced from 250 mg, DM 30 mg twice a day, about three weeks, no quinidine): 100 mg; overall result of DM by itself (summary) ([4]; without an oxidase inhibitor): no substantial benefit |
| CC(C)(C)NC[C@H](O)COc1nsnc1N1CCOCC1 [timolol] | 18 |  |
